Measurements taken from patent US12036271B2, “Peptides and combination of peptides as targets or active ingredients for use in immunotherapy against AML and other cancers” (Immatics Biotechnologies GmbH, priority 2016, dated 2024).

What follows are substances tested on CD8+ T cells (assay: In vitro immunogenicity: T-cell priming with aAPCs loaded with peptide/MHC complexes and anti-CD28, pMHC multimer readout). Conditions: HLA-A*02 healthy donor CD8+ T cells, multimer staining.
Format: cell-based, human
Excerpt: In order to obtain information regarding the immunogenicity of the TUMAPs of the present invention, the inventors performed investigations using an in vitro T-cell priming assay based on repeated stimulations of CD8+ T cells with artificial antigen presenting cells (aAPCs) loaded with peptide/MHC complexes and anti-CD28 antibody.
In order to perform in vitro stimulations by artificial antigen presenting cells loaded with peptide-MHC complex (pMHC) and anti-CD28 antibody, the inventors first isolated CD8+ T cells from fresh HLA-A*02 leukapheresis products via positive selection using CD8 microbeads (Miltenyi Biotec, Bergisch-Gladbach, Germany) of healthy donors obtained from the University clinics Mannheim, Germany, after informed consent.
PBMCs and isolated CD8+ lymphocytes were incubated in T-cell medium (TCM) until use consisting of RPMI-Glutamax (Invitrogen, Karlsruhe, Germany) supplemented with 10% heat inactivated human AB serum (PAN-Biotech, Aidenbach, Germany), 100 U/ml Penicillin/100 μg/ml Streptomycin (Cambrex, Cologne, Germany), 1 mM sodium pyruvate (CC Pro, Oberdorla, Germany), 20 μg/ml Gentamycin (Cambrex). 2.5 ng/ml IL-7 (PromoCell, Heidelberg, Germany) and 10 U/ml IL-2 (Novartis Pharma, Nürnberg, Germany) were also added to the TCM at this step.
Generation of pMHC/anti-CD28 coated beads, T-cell stimulations and readout was performed in a highly defined in vitro system using four different pMHC molecules per stimulation condition and 8 different pMHC molecules per readout condition.
The purified co-stimulatory mouse IgG2a anti human CD28 Ab 9.3 (Jung et al., 1987) was chemically biotinylated using Sulfo-N-hydroxysuccinimidobiotin as recommended by the manufacturer (Perbio, Bonn, Germany). Beads used were 5.6 μm diameter streptavidin coated polystyrene particles (Bangs Laboratories, Illinois, USA).
800.000 beads/200 μl were coated in 96-well plates in the presence of 4×12.5 ng different biotin-pMHC, washed and 600 ng biotin anti-CD28 were added subsequently in a volume of 200 μl. Stimulations were initiated in 96-well plates by co-incubating 1×10^6 CD8+ T cells with 2×10^5 washed coated beads in 200 μl TCM supplemented with 5 ng/ml IL-12 (PromoCell) for 3 days at 37° C. Half of the medium was then exchanged by fresh TCM supplemented with 80 U/ml IL-2 and incubating was continued for 4 days at 37° C. This stimulation cycle was performed for a total of three times. For the pMHC multimer readout using eight different pMHC molecules per condition, a two-dimensional combinatorial coding approach was used as previously described (Andersen et al., 2012) with minor modifications encompassing coupling to 5 different fluorochromes. Finally, multimeric analyses were performed by staining the cells with Live/dead near IR dye (Invitrogen, Karlsruhe, Germany), CD8-FITC antibody clone SK1 (BD, Heidelberg, Germany) and fluorescent pMHC multimers. For analysis, a BD LSRII SORP cytometer equipped with appropriate lasers and filters was used. Peptide specific cells were calculated as percentage of total CD8+ cells. Evaluation of multimeric analysis was done using the FlowJo software (Tree Star, Oregon, USA). In vitro priming of specific multimer+CD8+ lymphocytes was detected by comparing to negative control stimulations.
With “189 (RLFEEVLGV; listed as Homo sapiens) [compound 189]” the wells was “++ (20%-49% = ++)”.
For “190 (SLYKGLLSV; listed as Homo sapiens) [compound 190]”, the wells was “++ (20%-49% = ++)”.
With “191 (ALSVLRLAL; listed as Homo sapiens) [compound 191]” the wells was “++ (20%-49% = ++)”.
“192 (GLAALAVHL; listed as Homo sapiens) [compound 192]” was tested, and the wells was “++ (20%-49% = ++)”.
With “193 (FLLAEDTKV; listed as Homo sapiens) [compound 193]” the wells was “++ (20%-49% = ++)”.
In the case of “194 (LLWGNLPEI; listed as Homo sapiens) [compound 194]”, the wells is reported as “++ (20%-49% = ++)”.
“195 (FLFVDPELV; listed as Homo sapiens) [compound 195]” was tested, and the wells was “+++ (50%-69% = +++)”.
For “196 (ILVDWLVQV; listed as Homo sapiens) [compound 196]”, the wells was “++ (20%-49% = ++)”.
“197 (VLLNEILEQV; listed as Homo sapiens) [compound 197]” was tested, and the wells was “++ (20%-49% = ++)”.
“198 (KIQEILTQV; listed as Homo sapiens) [compound 198]” was tested, and the wells was “++ (20%-49% = ++)”.
